This is an account of results in US20240150293A1, “SPIROCYCLOHEXANE DERIVATIVES, PHARMACEUTICAL COMPOSITIONS CONTAINING THEM AND THEIR USES AS ANTI-APOPTOTIC INHIBITORS” (LES LABORATOIRES SERVIER, priority 2021, published 2024).

Read-outs that look alike come from different tables or passages of the source.

Assay [1] has as its system H929 multiple myeloma tumor line. In words: In vitro cytotoxicity, MTT assay (Example B, Method A). The format is cell-based. To be noted: H929 cells, 48 hours exposure, read-out: C50. The protocol: The cytotoxicity studies were carried out on the H929 multiple myeloma tumor line.
The cells are distributed onto microplates and exposed to the test compounds for 48 hours. The cell viability is then quantified by a colorimetric assay, the Microculture Tetrazolium Assay (Carmichael et al, Cancer Res. 1987, 47, 939-942).
The results are expressed in C50 which means concentration corresponding to […] of effect/inhibition.
Background: Tetrazolium assays rely on reduction of a dye to a coloured formazan, in cell work by metabolically active cells.

The next assay addresses Mcl-1 protein (UniProtKB Q07820) (Homo sapiens (Human), UniProt Q07820). In words: Inhibition of Mcl-1 by the fluorescence polarisation assay (Example A, Method A). The format is binding. To be noted: fluorescence polarization assay. In a few lines:
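Protein (5 nM) and fluorescein-tagged peptide tracer (1 nM) incubated with 11-point compound series for 2 h at room temperature in HEPES/NaCl/Tween 20 buffer, pH 7.4, 5% DMSO. Displacement read as decrease in polarisation; IC50 fitted by 4-parameter logistic, converted to Ki (cKi or eKi).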
Background: Fluorescence polarisation rises when a labelled molecule tumbles more slowly, as on binding a larger partner.

The target of assay [2] is Cy5-labelled Mcl1 (amino acids 171-321) C286S protein (UniProtKB Q07820) (Homo sapiens (Human), UniProt Q07820, C286S). Kind of assay: Inhibition of Mcl-1 by the fluorescence quenching assay (Example A, Method B). The class given is binding. An excerpt: Fluorescence quenching assay measures the change fluorescence intensity of C-terminally Cy5-labelled Mcl1 (amino acids 171-321) C286S protein (UniProtKB® primary accession number Q07820) having an amino acid sequence:
which is linked at the C-terminus to the amino acid X which corresponds to a cysteine labelled on the sulfur with sulpho-Cyanine5 from Lumiprobe GmbH catalogue number 13380, upon binding of a C-terminally labelled peptide derived from PUMA (UniProtKB® primary accession number Q9BXH1) having an amino acid sequence:
which is linked at the C-terminus to the amino acid X′, where X′ is cysteine labelled on the sulfur with TQ5WS from AAT Bioquest catalogue number 2079.
The addition of a compound which binds competitively to the same site as the peptide will result in an increase in the fluorescence intensity of the protein due to displacement of the fluorescence quencher.
An 11-point serial dilution of each compound was prepared in DMSO, the final buffer conditions were 10 mM 4-(2-hydroxyethyl)-1-piperazineethanesulfonic acid [HEPES], 150 mM NaCl, 0.05% Tween 20, pH 7.4 and 5% DMSO. The final protein concentration in the assay was 1 nM with the peptide present at 10, 20 or 400 nM. The experiments were incubated for 2 hours at room temperature before fluorescence intensity was measured on a Biotek SynergyNeo plate reader (Excitation 620 nm, emission 680 nm). The dose response curves were plotted with XL-Fit software using a 4-Parameter Logistic Model (Sigmoidal DoseResponse Model) and the inhibitory concentrations that gave a 50% increase in fluorescence intensity was determined (IC50). The Ki values were determined from the IC50 values according to Cer et al, Nucleic Acids Res, 2009, 37 (WebServer issue): W441-W445. Inhibition constants (Ki) are determined from complete binding inhibition curves (cKi) or from estimated from incomplete binding inhibition curves (eKi) in most cases due to low activity.

Sequence of Cy5-labelled Mcl1 (amino acids 171-321) C286S protein (Q07820 171-321 C286S): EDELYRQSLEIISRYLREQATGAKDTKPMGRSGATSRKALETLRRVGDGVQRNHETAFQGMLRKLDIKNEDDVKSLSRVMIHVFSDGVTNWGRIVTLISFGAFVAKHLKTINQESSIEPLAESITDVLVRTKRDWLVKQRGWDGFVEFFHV
Sequence of Mcl-1 protein (Q07820 whole entry): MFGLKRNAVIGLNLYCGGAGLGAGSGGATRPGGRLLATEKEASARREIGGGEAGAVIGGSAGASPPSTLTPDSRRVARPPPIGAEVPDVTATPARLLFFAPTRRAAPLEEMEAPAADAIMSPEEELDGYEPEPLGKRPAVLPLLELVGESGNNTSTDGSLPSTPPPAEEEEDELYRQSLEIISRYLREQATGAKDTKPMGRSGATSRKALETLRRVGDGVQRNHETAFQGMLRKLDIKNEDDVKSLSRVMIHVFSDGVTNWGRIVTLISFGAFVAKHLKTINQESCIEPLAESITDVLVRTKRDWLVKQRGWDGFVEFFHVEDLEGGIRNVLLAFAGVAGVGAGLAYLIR

What is called Ki is a dissociation constant, usually derived from enzyme kinetics or from competition with a known ligand. `CC(C)C(COc1ccncc1)CC1Cc2ccccc2[C@]12CC[C@@](Nc1cccc(Cl)c1)(C(=O)O)CC2` (single isomer, unassigned) [Example 533, (1r,4r)-4-(3-chloroanilino)-2′-(3-methyl-2-{[(pyridin-4-yl)oxy]methyl}butyl)-2′,3′-dihydrospiro[cyclohexane-1,1′-indene]-4-carboxylic acid]: the IC50 in assay [1] was found to be 14.5 µM. Besides, the Ki at Mcl-1 protein was 0.785 µM.
Turning to `C[C@@H](COc1ccnc2sccc12)C[C@H]1Cc2ccccc2[C@]12CC[C@@](Nc1cccc(Cl)c1)(C(=O)O)CC2` [Example 604, (1r,2′S,4S)-4-(3-chloroanilino)-2′-{(2R)-2-methyl-3-[(thieno[2,3-b]pyridin-4-yl)oxy]propyl}-2′,3′-dihydrospiro[cyclohexane-1,1′-indene]-4-carboxylic acid], the IC50 in assay [1] (Homo sapiens, NCI-H929, 48 h) stood at 0.694 µM. Further, on Mcl-1 protein, the Ki was determined as 0.03 µM.
In the case of `O=C(O)[C@]1(Nc2cccc(Cl)c2)CC[C@]2(CC1)C(c1cccc(OCc3ccncc3)c1)=Cc1ccccc12` [Example 362, (1s,4s)-4-(3-chloroanilino)-2′-{3-[(pyridin-4-yl)methoxy]phenyl}spiro[cyclohexane-1,1′-indene]-4-carboxylic acid], the IC50 in assay [1] (Homo sapiens, NCI-H929, 48 h) came out at 21.6 µM. Besides, the Ki on Mcl-1 protein was 0.174 µM.
For `Cc1cnccc1OCCC[C@@H]1Cc2ccccc2[C@]12CC[C@@](Nc1cccc(Cl)c1)(C(=O)O)CC2` [Example 448, (1r,2′R,4R)-4-(3-chloroanilino)-2′-{3-[(3-methylpyridin-4-yl)oxy]propyl}-2′,3′-dihydrospiro[cyclohexane-1,1′-indene]-4-carboxylic acid] the same measures were 10.5 µM and 0.0654 µM.
For `O=C(O)[C@]1(Nc2cccc(Cl)c2)CC[C@]2(CC1)C(CCOc1ccnc(F)c1)=Cc1ccccc12` [Example 191, (1r,4r)-4-(3-chloroanilino)-2′-{2-[(2-fluoropyridin-4-yl)oxy]ethyl}spiro[cyclohexane-1,1′-indene]-4-carboxylic acid], in assay [1] (Homo sapiens, NCI-H929, 48 h), the IC50 is 5.72 µM. In addition, the Ki at Mcl-1 protein amounted to 0.0697 µM.
In the case of `C[C@@H](COc1cccc2ncsc12)C[C@H]1Cc2ccccc2[C@]12CC[C@@](Nc1cccc(Cl)c1)(C(=O)O)CC2` [Example 625, (1r,2′S,4S)-2′-{(2R)-3-[(1,3-benzothiazol-7-yl)oxy]-2-methylpropyl}-4-(3-chloroanilino)-2′,3′-dihydrospiro[cyclohexane-1,1′-indene]-4-carboxylic acid], the IC50 in assay [1] (Homo sapiens, NCI-H929, 48 h) was 6.59 µM.
With `CCC1CC(O)c2nccc(OC[C@H](C)C[C@H]3Cc4ccccc4[C@]34CC[C@@](Nc3cccc(Cl)c3)(C(=O)O)CC4)c21` (stereo partly drawn) [Example 624, (1r,2′S,4S)-4-(3-chloroanilino)-2′-{(2R)-3-[(5-ethyl-7-hydroxy-6,7-dihydro-5H-cyclopenta[b]pyridin-4-yl)oxy]-2-methylpropyl}-2′,3′-dihydrospiro[cyclohexane-1,1′-indene]-4-carboxylic acid], the IC50 in assay [1] (Homo sapiens, NCI-H929, 48 h) turned out to be 0.525 µM.
Take `O=C(O)[C@]1(Nc2cccc(Cl)c2)CC[C@@]2(CC1)c1ccccc1CC2CCCOc1ccncc1` (stereo partly shown) [Example 426, (1r,4r)-4-(3-chloroanilino)-2′-{3-[(pyridin-4-yl)oxy]propyl}-2′,3′-dihydrospiro[cyclohexane-1,1′-indene]-4-carboxylic acid]: in assay [1] (Homo sapiens, NCI-H929, 48 h), the IC50 amounted to 16.5 µM. Further, the Ki at Mcl-1 protein was determined as 0.0553 µM.
As for `O=C(O)[C@]1(Nc2cccc(Cl)c2)CC[C@@]2(CC1)c1ccccc1C[C@H]2c1cccc(OCc2ccccc2)c1` [Example 332, (1r,2′S,4S)-2′-[3-(benzyloxy)phenyl]-4-(3-chloroanilino)-2′,3′-dihydrospiro[cyclohexane-1,1′-indene]-4-carboxylic acid], in assay [1] (Homo sapiens, NCI-H929, 48 h), the IC50 amounted to 16.4 µM. For the same molecule, the Ki at Mcl-1 protein was 0.475 µM.
For `O=C(O)[C@]1(Nc2cccc(Cl)c2)CC[C@@]2(CC1)c1ccccc1C[C@@H]2C[C@H](COc1cccnc1)c1ccccc1` [Example 551, (1r,2′S,4S)-4-(3-chloroanilino)-2′-{(2S)-2-phenyl-3-[(pyridin-3-yl)oxy]propyl}-2′,3′-dihydrospiro[cyclohexane-1,1′-indene]-4-carboxylic acid], the IC50 in assay [1] (Homo sapiens, NCI-H929, 48 h) amounted to 15.9 µM. The inhibition constant (Ki) on Mcl-1 protein amounted to 0.607 µM.
Consider `O=C(O)[C@]1(Nc2cccc(Cl)c2)CC[C@@]2(CC1)c1ccccc1C[C@H]2C[C@H](COc1cccnc1)c1ccccc1` [Example 550, (1r,2′R,4R)-4-(3-chloroanilino)-2′-{(2S)-2-phenyl-3-[(pyridin-3-yl)oxy]propyl}-2′,3′-dihydrospiro[cyclohexane-1,1′-indene]-4-carboxylic acid], for which, in assay [1] (Homo sapiens, NCI-H929, 48 h), the IC50 amounted to 30 µM. Further, the inhibitory constant (Ki) at Mcl-1 protein was 5.28 µM.
Take `CC(C)C(COc1ccnc2ccsc12)CC1Cc2ccccc2[C@]12CC[C@@](Nc1cccc(Cl)c1)(C(=O)O)CC2` (single isomer, unassigned) [Example 524, (1r,4r)-4-(3-chloroanilino)-2′-(3-methyl-2-{[(thieno[3,2-b]pyridin-7-yl)oxy]methyl}butyl)-2′,3′-dihydrospiro[cyclohexane-1,1′-indene]-4-carboxylic acid]: the IC50 in assay [1] amounted to 30 µM.
In the case of `CC(C)C(COc1ccnc2ccsc12)CC1Cc2ccccc2[C@]12CC[C@@](Nc1cccc(Cl)c1)(C(=O)O)CC2` (single isomer, unassigned) [Example 523, (1r,4r)-4-(3-chloroanilino)-2′-(3-methyl-2-{[(thieno[3,2-b]pyridin-7-yl)oxy]methyl}butyl)-2′,3′-dihydrospiro[cyclohexane-1,1′-indene]-4-carboxylic acid], in assay [1], the IC50 was 16.4 µM.
Take `Cc1ccc2[nH]ccc2c1OCCC[C@@H]1Cc2ccccc2[C@]12CC[C@@](Nc1cccc(Cl)c1)(C(=O)O)CC2` [Example 489, (1r,2′R,4R)-4-(3-chloroanilino)-2′-{3-[(5-methyl-1H-indol-4-yl)oxy]propyl}-2′,3′-dihydrospiro[cyclohexane-1,1′-indene]-4-carboxylic acid]: in assay [2], the Ki stood at 0.076 µM.
Regarding `O=C(O)[C@]1(Nc2cccc(Cl)c2)CC[C@@]2(CC1)c1ccccc1CC2CC(CO)COc1ccnc2c1CCC2` (single isomer, unassigned) [Example 500, (1r,4r)-4-(3-chloroanilino)-2′-(2-{[(6,7-dihydro-5H-cyclopenta[b]pyridin-4-yl)oxy]methyl}-3-hydroxypropyl)-2′,3′-dihydrospiro[cyclohexane-1,1′-indene]-4-carboxylic acid], in assay [2], the inhibition constant (Ki) was determined as 0.0155 µM.
Turning to `C[C@@H](COc1cccc2[nH]ccc12)CN1Cc2ccccc2[C@]12CC[C@@](Nc1cccc(Cl)c1)(C(=O)O)CC2` [Example 39, (1s,4S)-4-(3-chloroanilino)-2′-{(2R)-3-[(1H-indol-4-yl)oxy]-2-methylpropyl}-2′,3′-dihydrospiro[cyclohexane-1,1′-isoindole]-4-carboxylic acid], the inhibition constant (Ki) in assay [2] (Ki determined from IC50) was determined as 0.0449 µM.
As to `C[C@@H](COc1ccnc2[nH]ccc12)C[C@H]1Cc2ccccc2[C@]12CC[C@@](Nc1cccc(Cl)c1)(C(=O)O)CC2` [Example 626, (1r,2′S,4S)-4-(3-chloroanilino)-2′-{(2R)-2-methyl-3-[(1H-pyrrolo[2,3-b]pyridin-4-yl)oxy]propyl}-2′,3′-dihydrospiro[cyclohexane-1,1′-indene]-4-carboxylic acid], the IC50 in assay [1] (Homo sapiens, NCI-H929, 48 h) was 0.54 µM.
`C[C@@H](COc1ccnc2c1[C@H](C)CCC2)C[C@H]1Cc2cc3c(cc2[C@]12CC[C@@](Nc1cccc(Cl)c1)(C(=O)OCCCS(=O)(=O)O)CC2)OCO3` [Example 953, 3-({(1r,4S,6′S)-4-(3-chloroanilino)-6′-[(2R)-2-methyl-3-{[(5R)-5-methyl-5,6,7,8-tetrahydroquinolin-4-yl]oxy}propyl]-6′,7′-dihydro-2′H-spiro[cyclohexane-1,5′-indeno[5,6-d][1,3]dioxole]-4-carbonyl}oxy)propane-1-sulfonic acid]: in assay [2], the Ki came out at 0.0556 µM.
With `CC(CC1Cc2ccccc2[C@]12CC[C@@](Nc1cccc(Cl)c1)(C(=O)O)CC2)C(C)Oc1ccnc2c1CCC2` (single isomer, unassigned) [Example 617, (1r,4r)-4-(3-chloroanilino)-2′-{3-[(6,7-dihydro-5H-cyclopenta[b]pyridin-4-yl)oxy]-2-methylbutyl}-2′,3′-dihydrospiro[cyclohexane-1,1′-indene]-4-carboxylic acid], in assay [2], the Ki was 0.0935 µM.
